Reference: US20260022142A1, “MACROCYCLIC IMMUNOMODULATORS” (Bristol-Myers Squibb Company, priority 2022, published 2026)
Bridge positions count the residues as written; N and C are the ends. Square brackets hold non-standard residues; d marks the D form. Peptide text beside a SMILES is read from it. * marks the point of attachment. ξ: configuration not given here. Phe(4-COOH) = N[C@@H](Cc1ccc(C(=O)O)cc1)C(=O)O; Bip = N[C@@H](Cc1ccc(-c2ccccc2)cc1)C(=O)O; Phe(3-Me) = Cc1cccc(C[C@H](N)C(=O)O)c1; His(τ-Me) = Cn1cnc(C[C@H](N)C(=O)O)c1; NH(CH2)12COOH = O=C(O)CCCCCCCCCCCCN*; Bta = N[C@@H](Cc1csc2ccccc12)C(=O)O; Val(3-OH) = CC(C)(O)[C@H](N)C(=O)O; hArg = N=C(N)NCCCC[C@H](N)C(=O)O; Cha = N[C@@H](CC1CCCCC1)C(=O)O; Cit = NC(=O)NCCC[C@H](N)C(=O)O; Thr(3ξ) = CC(O)[C@H](N)C(=O)O; 12Ado = NCCCCCCCCCCCC(=O)O; dDab = NCC[C@@H](N)C(=O)O; hSer = N[C@@H](CCO)C(=O)O; Carboxymethyl = O=C(O)C*; Orn = NCCC[C@H](N)C(=O)O; Aun = NCCCCCCCCCCC(=O)O; Dab = NCC[C@H](N)C(=O)O; Dap = NC[C@H](N)C(=O)O; AEEA = NCCOCCOCC(=O)O

What follows are molecules tested against T1, PD-1/PD-L1 interaction (PE-labeled human PD-L1-Ig binding to Jurkat cell line over-expressing human PD-1) (Homo sapiens, UniProt Q15116) (assay: Jurkat-PD-1 Cell Binding High-Content Screening Assay (CBA)). Settings: Jurkat cell line over-expressing human PD-1; PE-labeled PD-L1-Ig 20 nM final; read-out: Jurkat hPD1-PDL1 IC50.
T1 construct: expressed in transfected cells; host or cells: Jurkat
T1 sequence (Q15116 25-288): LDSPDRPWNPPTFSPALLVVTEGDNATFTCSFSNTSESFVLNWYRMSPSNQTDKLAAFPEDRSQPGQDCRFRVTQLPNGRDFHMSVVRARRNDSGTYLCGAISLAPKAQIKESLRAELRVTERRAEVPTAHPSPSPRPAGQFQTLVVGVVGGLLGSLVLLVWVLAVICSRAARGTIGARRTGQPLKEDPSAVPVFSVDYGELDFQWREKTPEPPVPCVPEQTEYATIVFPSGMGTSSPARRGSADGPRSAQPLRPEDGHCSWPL
Assay type: cell-based
Summary of the method: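 Human PD-L1-Ig carrying a covalent PE label on its Ig tag serves as the probe, applied at 20 nM final to compound-treated (2 h, 37° C) Jurkat-hPD-1 cells in medium with 10% fetal calf serum. After one hour, fixation and nuclear staining precede high-content image analysis.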

SMILES	IC50 [nM]
Cc1cccc(C[C@@H]2NC(=O)[C@H](CC(=O)O)NC(=O)[C@H](Cc3ccc(OCC(=O)O)cc3)NC(=O)[C@H](CN)NC(=O)CSC[C@@H](C(=O)N[C@@H](C)C(=O)N[C@@H](CCCN)C(=O)NCCCCCCCCCCC(=O)O)NC(=O)[C@H]([C@@H](C)O)NC(=O)[C@H](C(C)C)NC(=O)[C@H](CC3CCCCC3)NC(=O)[C@H](Cc3cnc[nH]3)NC(=O)[C@@H](CC(C)C)NC(=O)[C@H](CCCN)NC(=O)[C@H](C(C)C)NC(=O)[C@H](Cc3ccc(-c4ccccc4)cc3)NC(=O)[C@H](C(C)C)NC2=O)c1 [Compound 1113] ({CH2CO}-[Dap]Y(Carboxymethyl)D[Phe(3-Me)]V[Bip]V[Orn][dL]H[Cha]VTCA[Orn][Aun]-OH; thioether N-14)	30.2
Cc1cccc(C[C@@H]2NC(=O)[C@H](CC(=O)O)NC(=O)[C@H](Cc3ccc(OCC(=O)O)cc3)NC(=O)[C@H](CN)NC(=O)CSC[C@@H](C(=O)N[C@@H](CCN)C(=O)NCCOCCOCC(=O)NCCCCCCCCCCC(=O)O)NC(=O)[C@H](C(C)O)NC(=O)[C@H](Cc3ccc(O)cc3)NC(=O)[C@H](CC3CCCCC3)NC(=O)[C@H](CCN)NC(=O)[C@@H](CC(C)C)NC(=O)[C@H](CCCN)NC(=O)[C@H](C(C)C)NC(=O)[C@H](Cc3ccc(-c4ccccc4)cc3)NC(=O)[C@H](Cc3ccc(O)cc3)NC2=O)c1 (stereo partly drawn) [Compound 2573] ({CH2CO}-[Dap]Y(Carboxymethyl)D[Phe(3-Me)]Y[Bip]V[Orn][dL][Dab][Cha]Y[Thr(3ξ)]C[Dab][AEEA][Aun]-OH; thioether N-14)	47.6
Cc1cccc(C[C@@H]2NC(=O)[C@H](CC(=O)O)NC(=O)[C@H](Cc3ccc(OCC(=O)O)cc3)NC(=O)[C@H](CN)NC(=O)CSC[C@@H](C(=O)N[C@@H](CCN)C(=O)NCCCCCCCCCCCCC(=O)O)NC(=O)[C@H](CO)NC(=O)[C@H](C(C)(C)O)NC(=O)[C@H](CC3CCCCC3)NC(=O)[C@H](CCN)NC(=O)[C@@H](CC(C)C)NC(=O)[C@H](CCCN)NC(=O)[C@H](Cc3ccc(OCC(=O)O)cc3)NC(=O)[C@H](Cc3ccc(-c4ccccc4)cc3)NC(=O)[C@H](Cc3ccc(OCC(=O)O)cc3)NC2=O)c1 [Compound 2222] ({CH2CO}-[Dap]Y(Carboxymethyl)D[Phe(3-Me)]Y(Carboxymethyl)[Bip]Y(Carboxymethyl)[Orn][dL][Dab][Cha][Val(3-OH)]SC[Dab]-{NH(CH2)12COOH}; thioether N-14)	17.6
CC(=O)NCCCC[C@@H]1NC(=O)[C@H](Cc2ccc(-c3ccccc3)cc2)NC(=O)[C@H](C(C)C)NC(=O)[C@H](Cc2cccc(C)c2)NC(=O)[C@H](CC(=O)O)NC(=O)[C@H](Cc2ccc(OCC(=O)O)cc2)NC(=O)[C@H](CCCNC(=N)N)NC(=O)CSC[C@@H](C(=O)N[C@H](CCN)C(=O)NCCCCCCCCCCC(=O)O)NC(=O)[C@H](C(C)O)NC(=O)[C@H](C(C)C)NC(=O)[C@H](CC2CCCCC2)NC(=O)[C@H](CCN)NC(=O)[C@@H](CC(C)C)NC(=O)[C@H](CCCN)NC1=O (stereo partly drawn) [Compound 3558] ({CH2CO}-RY(Carboxymethyl)D[Phe(3-Me)]V[Bip]K(Ac)[Orn][dL][Dab][Cha]V[Thr(3ξ)]C[dDab][Aun]-OH; thioether N-14)	29.8
Cc1cccc(C[C@@H]2NC(=O)[C@H](CC(=O)O)NC(=O)[C@H](Cc3ccc(OCC(=O)O)cc3)NC(=O)[C@H](CN)NC(=O)CSC[C@@H](C(=O)NCCOCCOCC(=O)NCCCCCCCCCCC(=O)O)NC(=O)[C@H](CCCNC(=N)N)NC(=O)[C@H](Cc3ccc(O)cc3)NC(=O)[C@H](CC3CCCCC3)NC(=O)[C@H](CCN)NC(=O)[C@@H](CC(C)C)NC(=O)[C@H](CCCN)NC(=O)[C@H](Cc3ccc(O)cc3)NC(=O)[C@H](Cc3ccc(-c4ccccc4)cc3)NC(=O)[C@H](Cc3ccc(O)cc3)NC2=O)c1 [Compound 2520] ({CH2CO}-[Dap]Y(Carboxymethyl)D[Phe(3-Me)]Y[Bip]Y[Orn][dL][Dab][Cha]YRC[AEEA][Aun]-OH; thioether N-14)	233
CC(=O)NCCCC[C@@H]1NC(=O)[C@H](Cc2ccc(-c3ccccc3)cc2)NC(=O)[C@H](Cc2ccc(O)cc2)NC(=O)[C@H](Cc2cccc(C)c2)NC(=O)[C@H](CC(=O)O)NC(=O)[C@H](Cc2ccc(OCC(=O)O)cc2)NC(=O)[C@H](CCN)NC(=O)CSC[C@@H](C(=O)N[C@@H](CCN)C(=O)N[C@@H](CO)C(=O)NCCCCCCCCCCCC(=O)O)NC(=O)[C@H](CO)NC(=O)[C@H](CCCCN)NC(=O)[C@H](CC2CCCCC2)NC(=O)[C@H](CCN)NC(=O)[C@@H](CC(C)C)NC(=O)[C@H](CCCN)NC1=O [Compound 3627] ({CH2CO}-[Dab]Y(Carboxymethyl)D[Phe(3-Me)]Y[Bip]K(Ac)[Orn][dL][Dab][Cha]KSC[Dab]S[12Ado]-OH; thioether N-14)	36.7
CC(C)C[C@H]1NC(=O)[C@H](CCCN)NC(=O)[C@H](C(C)C)NC(=O)[C@H](Cc2ccc(-c3ccccc3)cc2)NC(=O)[C@H](CCO)NC(=O)[C@H](Cc2c[nH]c3ccccc23)NC(=O)[C@H](CC(=O)O)NC(=O)[C@H](Cc2ccc(OCC(=O)O)cc2)NC(=O)[C@H](CCCNC(=N)N)NC(=O)CSC[C@@H](C(=O)N[C@@H](CCCN)C(=O)NCCCCCCCCCCC(=O)O)NC(=O)[C@H](C(C)O)NC(=O)[C@H](C(C)C)NC(=O)[C@H](CC2CCCCC2)NC(=O)[C@H](CCN)NC1=O (stereo partly drawn) [Compound 3338] ({CH2CO}-RY(Carboxymethyl)DW[hSer][Bip]V[Orn][dL][Dab][Cha]V[Thr(3ξ)]C[Orn][Aun]-OH; thioether N-14)	27.4
CC(C)C[C@H]1NC(=O)[C@H](CCCN)NC(=O)[C@H](C(C)C)NC(=O)[C@H](Cc2ccc(-c3ccccc3)cc2)NC(=O)[C@H](C(C)C)NC(=O)[C@H](Cc2csc3ccccc23)NC(=O)[C@H](CC(=O)O)NC(=O)[C@H](Cc2ccc(OCC(=O)O)cc2)NC(=O)[C@H](CCCCNC(=N)N)NC(=O)CSC[C@@H](C(=O)N[C@@H](CCCN)C(=O)NCCCCCCCCCCC(=O)O)NC(=O)[C@H](CO)NC(=O)[C@H](C(C)C)NC(=O)[C@H](CC2CCCCC2)NC(=O)[C@H](CCN)NC1=O [Compound 3067] ({CH2CO}-[hArg]Y(Carboxymethyl)D[Bta]V[Bip]V[Orn][dL][Dab][Cha]VSC[Orn][Aun]-OH; thioether N-14)	41

These reach a lower IC50. Values come first.

IC50 [nM]	SMILES
10.9	Cc1cccc(C[C@@H]2NC(=O)[C@H](CC(=O)O)NC(=O)[C@H](Cc3ccc(OCC(=O)O)cc3)NC(=O)[C@H](CCCCNC(=N)N)NC(=O)CSC[C@@H](C(=O)N[C@@H](CCN)C(=O)NCCOCCOCC(=O)NCCCCCCCCCCC(=O)O)NC(=O)[C@H](CCCN)NC(=O)[C@H](C(C)C)NC(=O)[C@H](CC3CCCCC3)NC(=O)[C@H](CCN)NC(=O)[C@@H](CC(C)C)NC(=O)[C@H](CN)NC(=O)[C@H](C(C)C)NC(=O)[C@H](Cc3ccc(-c4ccccc4)cc3)NC(=O)[C@H](C(C)C)NC2=O)c1 [Compound 3244] ({CH2CO}-[hArg]Y(Carboxymethyl)D[Phe(3-Me)]V[Bip]V[Dap][dL][Dab][Cha]V[Orn]C[Dab][AEEA][Aun]-OH; thioether N-14)
6.3	Cc1cccc(C[C@@H]2NC(=O)[C@H](CC(=O)O)NC(=O)[C@H](Cc3ccc(OCC(=O)O)cc3)NC(=O)[C@H](CN)NC(=O)CSC[C@@H](C(=O)N[C@@H](C)C(=O)N[C@@H](CCC(=O)O)C(=O)NCCCCCCCCCCC(=O)O)NC(=O)[C@H](CCCN)NC(=O)[C@H](C(C)C)NC(=O)[C@H](CC3CCCCC3)NC(=O)[C@H](CCN)NC(=O)[C@@H](CC(C)C)NC(=O)[C@H](CCCN)NC(=O)[C@H](CCCNC(N)=O)NC(=O)[C@H](Cc3ccc(-c4ccccc4)cc3)NC(=O)[C@H](C(C)C)NC2=O)c1 [Compound 2617] ({CH2CO}-[Dap]Y(Carboxymethyl)D[Phe(3-Me)]V[Bip][Cit][Orn][dL][Dab][Cha]V[Orn]CAE[Aun]-OH; thioether N-14)
5.2	Cc1cccc(C[C@@H]2NC(=O)[C@H](CC(=O)O)NC(=O)[C@H](Cc3ccc(OCC(=O)O)cc3)NC(=O)[C@H](C(C)O)NC(=O)CSC[C@@H](C(=O)N[C@H](CC(N)=O)C(=O)NCCCCCCCCCCC(=O)O)NC(=O)[C@H](C(C)O)NC(=O)[C@H](C(C)C)NC(=O)[C@H](CC3CCCCC3)NC(=O)[C@H](CCN)NC(=O)[C@@H](CC(C)C)NC(=O)[C@H](CCCN)NC(=O)[C@H](Cc3ccc(C(=O)O)cc3)NC(=O)[C@H](Cc3ccc(-c4ccccc4)cc3)NC(=O)[C@H](Cc3ccc(C(=O)O)cc3)NC2=O)c1 (stereo partly drawn) [Compound 3500] ({CH2CO}-[Thr(3ξ)]Y(Carboxymethyl)D[Phe(3-Me)][Phe(4-COOH)][Bip][Phe(4-COOH)][Orn][dL][Dab][Cha]V[Thr(3ξ)]C[dN][Aun]-OH; thioether N-14)
12.3	Cc1cccc(C[C@@H]2NC(=O)[C@H](CC(=O)O)NC(=O)[C@H](Cc3ccc(OCC(=O)O)cc3)NC(=O)[C@H](CN)NC(=O)CSC[C@@H](C(=O)N[C@@H](C)C(=O)N[C@@H](CCN)C(=O)NCC(=O)NCCCCCCCCCCC(=O)O)NC(=O)[C@H]([C@@H](C)O)NC(=O)[C@H](C(C)C)NC(=O)[C@H](CC3CCCCC3)NC(=O)[C@H](CCN)NC(=O)[C@@H](CC(C)C)NC(=O)[C@H](CCCN)NC(=O)[C@H](CCCNC(N)=O)NC(=O)[C@H](Cc3ccc(-c4ccccc4)cc3)NC(=O)[C@H](C(C)C)NC2=O)c1 [Compound 1051] ({CH2CO}-[Dap]Y(Carboxymethyl)D[Phe(3-Me)]V[Bip][Cit][Orn][dL][Dab][Cha]VTCA[Dab]G[Aun]-OH; thioether N-14)
14.4	Cc1cccc(C[C@@H]2NC(=O)[C@H](CC(=O)O)NC(=O)[C@H](Cc3ccc(OCC(=O)O)cc3)NC(=O)[C@H](Cc3cn(C)cn3)NC(=O)CSC[C@@H](C(=O)N[C@@H](CCN)C(=O)NCCCCCCCCCCC(=O)O)NC(=O)[C@H]([C@@H](C)O)NC(=O)[C@H](C(C)C)NC(=O)[C@H](CC3CCCCC3)NC(=O)[C@H](CCN)NC(=O)[C@@H](CC(C)C)NC(=O)[C@H](CCCN)NC(=O)[C@H](CCCNC(N)=O)NC(=O)[C@H](Cc3ccc(-c4ccccc4)cc3)NC(=O)[C@H](C(C)C)NC2=O)c1 [Compound 2036] ({CH2CO}-[His(τ-Me)]Y(Carboxymethyl)D[Phe(3-Me)]V[Bip][Cit][Orn][dL][Dab][Cha]VTC[Dab][Aun]-OH; thioether N-14)
